According to patent US20220306653A1, “MACROCYCLIC INHIBITORS OF MCL-1” (Janssen Pharmaceutica NV, priority 2019, published 2022):

Tested on: MOLP-8 human multiple myeloma cell line
Experiment: MOLP8 Caspase-Glo 3/7 luminescent assay
Format: cell-based
Conditions: 2 hours incubation; averaged values over all runs on all batches
From the text: MCL-1 is a regulator of apoptosis and is highly over-expressed in tumor cells that escape cell death. The assay evaluates the cellular potency of small-molecule compounds targeting regulators of the apoptosis pathway, primarily MCL-1, Bfl-1, Bcl-2, and other proteins of the Bcl-2 family. Protein-protein inhibitors disrupting the interaction of anti-apoptotic regulators with BH3-domain proteins initiate apoptosis.
The Caspase-Glo® 3/7 Assay is a luminescent assay that measures caspase-3 and -7 activities in purified enzyme preparations or cultures of adherent or suspension cells. The assay provides a proluminescent caspase-3/7 substrate, which contains the tetrapeptide sequence DEVD. This substrate is cleaved to release aminoluciferin, a substrate of luciferase used in the production of light. Addition of the single Caspase-Glo® 3/7 Reagent in an “add-mix-measure” format results in cell lysis, followed by caspase cleavage of the substrate and generation of a “glow-type” luminescent signal.
This assay uses the MOLP-8 human multiple myeloma cell line, which is sensitive to MCL-1 inhibition.
Cell cultures were maintained between 0.2 and 2.0×10^6 cells/mL. The cells were harvested by collection in 50 mL conical tubes. The cells were then pelleted at 500 g for 5 mins before removing supernatant and resuspension in fresh pre-warmed culture medium. The cells were counted and diluted as needed.
The assay reagent was prepared by transferring the buffer solution to the substrate vial and mixing. The solution may be stored for up to 1 week at 4° C. with negligible loss of signal.
Compounds were delivered in assay-ready plates (Proxiplate) and stored at −20° C.
Assays always include 1 reference compound plate containing reference compounds. The plates were spotted with 40 nL of compounds (0.5% DMSO final in cells; serial dilution; 30 μM highest conc. ⅓ dilution, 10 doses, duplicates). The compounds were used at room temperature and 4 μL of pre-warmed media was added to all wells except column 2 and 23. The negative control was prepared by adding 1% DMSO in media. The positive control was prepared by adding the appropriate positive control compound in final concentration of 60 μM in media. The plate was prepared by adding 4 μL negative control to column 23, 4 μL positive control to column 2 and 4 μL cell suspension to all wells in the plate. The plate with cells was then incubated at 37° C. for 2 hours. The assay signal reagent is the Caspase-Glo solution described above, and 8 μL was added to all wells. The plates were then sealed and measured after 30 minutes.
The activity of a test compound was calculated as percent change in apoptosis induction as follows:
LC=median of the Low Control values • =Central Reference in Screener • =DMSO • =0% ΠC=Median of the High Control values • =Scale Reference in Screener • =30 pM of positive control • =100% apoptosis induction
% Effect (AC50)=100−(sample−LC)/(HC−LC)*100
% Control=(sample/HC)*100
% Control min=(sample−LC)/(HC−LC)*100

Work on `Cc1c(C(=O)O)n2c3ccc(Cl)c(c13)-c1c(nn(C)c1C)CSCc1cc(n(C)n1)CSc1cc(c3ccccc3c1)OCCC2` (single isomer, unassigned) [Compound 1, 1^5-chloro-1^3,2^1,2^5,6^1-tetramethyl-1^1H,2^1H,6^1H-10-oxa-4,8-dithia-1(4,1)-indola-2(4,3),6(3,5)-dipyrazola-9(3,1)-naphthalenacyclotridecaphane-1^2-carboxylic acid] yielded an AC50 of 0.05 µM.

Work on `Cc1c(C(=O)O)n2c3ccc(Cl)c(c13)-c1c(nn(C)c1C)CSCc1cc(n(C)n1)CSc1cc(c3ccccc3c1)OCCC2` (single isomer, unassigned) [Compound 2, 1^5-chloro-1^3,2^1,2^5,6^1-tetramethyl-1′H,2′H,6H-10-oxa-4,8-dithia-1(4,1)-indola-2(4,3),6(3,5)-dipyrazola-9(3,1)-naphthalenacyclotridecaphane-1^2-carboxylic acid] yielded an AC50 of 10.3 µM.
